What was measured:
[1] = system: E. coli S30 coupled in vitro transcription-translation system; test: Self-methylation of M.EcoRI gene in coupled in vitro transcription/translation, resistance to cleavage by EcoRI; format: biochemical; conditions: translation inhibited, in the presence of puromycin
Method: The PCR-amplified DNA-methylases genes described above are expressed in a prokaryotic in vitro coupled transcription/translation system designed for linear templates (Lesley et al., 1991). A commercial preparation of this system is used (E. coli S30 Extract System for Linear Templates; Promega) supplemented with T7 RNA polymerase and S-adenosyl methionine (SAM) at 80 μM concentration.
Methylation is assayed by measuring the resistance of DNA fragments labelled with DIG and biotin to cleavage by the cognate restriction enzyme using the Boehringer-Mannheim DIG-Biotin ELISA or with radioactively labelled DNA fragments and streptavidin coated magnetic beads. […] The absorbance (at 450 minus 650 nm) is measured after quenching with 0.5M H2SO4 (130 μl/well).
For the radioactive assay, the plasmids and PCR fragments described above are amplified by PCR using primers LMB2-Biotin (SEQ. ID. No. 9) and LMB3 and α-P^32-CTP to give P^32-labelled DNA fragments labelled at one end by biotin and which carry the T7 RNA polymerase promoter, the phage T7 gene 10 translational start site, the methyltransferase gene and the relevant M/R sites. […] The amount of radioactively-labelled DNA on the beads and in the supernatants is determined by scintillation. […]

[2] = system: coupled transcription-translation reaction; test: Production of active DHFR in a 2 hour coupled transcription-translation reaction; format: biochemical, E. coli; conditions: 0.1 mM, alone or in combination; 2 hour reaction

Compound | resistance to cleavage by EcoRI [1] | inhibition of the production of active DHFR [2]
COc1ccc(C[C@H](N)C(=O)N[C@H]2[C@@H](O)[C@H](n3cnc4c(N(C)C)ncnc43)O[C@@H]2CO)cc1 [puromycin] | not observed | 
NADPH |  | does not cause any inhibition
